biological target: human GLP1R (Homo sapiens (Human), UniProt P43220); experiment: In vitro cAMP signal activation in human GLP1R stably-expressing cell line (hGLP1R-HEK293); format: cell-based; conditions: cAMP concentration in hGLP1R-HEK293; 100% = 1 nM human GLP-1 (7-37)
Protocol: <Test Example 1> Measurement of In Vitro cAMP Signal Activation of a Compound in Human GLP1R
A human GLP1R stably-expressing cell line (hGLP1R-HEK293) was used in the experiment. The cells were cultured in a Dulbecco's modified Eagle's medium (DMEM) containing 10% fetal bovine serum (Sigma-Aldrich), 100 units/mL penicillin G and 100 μg/mL streptomycin sulfate (Gibco), and 500 μg/mL Geneticin (Gibco), under a moist atmosphere containing 5% CO2, at 37° C.
hGLP1R-HEK293 was seeded in 96 well plates at 2.0×10^4 cells per well and cultured over night. The medium for culturing the cells was changed to 50 μL of Medium A (DMEM, 20 mM HEPES, 0.05% BSA, 0.5 mM 3-isobutyl-1-methylxanthine) the next day, and the cells were incubated at 37° C. for 30 min. Then, 50 μL of Medium B (DMEM, 20 mM HEPES, 0.05% BSA, 0.5 mM 3-isobutyl-1-methylxanthine) containing GLP-1 or the compound was added, and the cells were incubated at 37° C. for an additional 30 min. Then, 100 μL of Assay lysis buffer (Applied Bioscience) was added, and the cells were incubated at 37° C. for 30 min. The cAMP concentration was quantified using cAMP HiRange kit (Cisbio Bioassays).
By setting the cAMP concentration when the human GLP-1 (7-37) was put into action at a concentration of 1 nM to 100%, the cAMP concentration of each well was converted to a reaction rate (%).

human GLP1R, sequence (P43220 24-463): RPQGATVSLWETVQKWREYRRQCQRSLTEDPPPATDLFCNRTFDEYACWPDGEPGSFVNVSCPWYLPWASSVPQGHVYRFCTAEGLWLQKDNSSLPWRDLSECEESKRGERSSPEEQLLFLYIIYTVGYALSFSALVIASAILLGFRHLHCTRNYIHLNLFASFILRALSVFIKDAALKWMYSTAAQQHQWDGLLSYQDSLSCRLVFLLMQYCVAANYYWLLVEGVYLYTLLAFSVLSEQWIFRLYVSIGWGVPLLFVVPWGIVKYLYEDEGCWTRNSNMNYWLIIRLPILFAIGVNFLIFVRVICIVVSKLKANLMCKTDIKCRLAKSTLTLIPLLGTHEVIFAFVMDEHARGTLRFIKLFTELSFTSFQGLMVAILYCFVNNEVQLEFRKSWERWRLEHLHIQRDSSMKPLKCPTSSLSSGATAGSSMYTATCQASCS

| EC50 [nM] | SMILES |
| --- | --- |
| 1.1 | COCCn1ncc2cc(-n3ccn(-c4c5c(nn4-c4cc(C)c(F)c(C)c4)CCN(C(=O)c4cc6cc([C@H]7CCO[C@@H](C)C7)ccc6n4[C@@]4(c6noc(=O)[nH]6)C[C@@H]4C)[C@H]5C)c3=O)ccc21 [compound 62, 3-[(1S,2S)-1-[2-[(4S)-2-(4-fluoro-3,5-dimethylphenyl)-3-[3-[1-(2-methoxyethyl)indazol-5-yl]-2-oxoimidazol-1-yl]-4-methyl-6,7-dihydro-4H-pyrazolo[4,3-c]pyridine-5-carbonyl]-5-[(2S,4S)-2-methyloxan-4-yl]indol-1-yl]-2-methylcyclopropyl]-4H-1,2,4-oxadiazol-5-one] |
| 2.7 | COc1nccc(-c2ccc3c(c2)cc(C(=O)N2CCc4nn(-c5cc(C)c(F)c(C)c5)c(-n5ccn(-c6ccc7c(cnn7C)c6)c5=O)c4[C@@H]2C)n3[C@@]2(c3noc(=O)[nH]3)C[C@@H]2C)c1C [Example 12, 3-[(1S,2S)-1-[2-[(4S)-2-(4-fluoro-3,5-dimethylphenyl)-4-methyl-3-[3-(1-methylindazol-5-yl)-2-oxoimidazol-1-yl]-6,7-dihydro-4H-pyrazolo[4,3-c]pyridine-5-carbonyl]-5-(2-methoxy-3-methylpyridin-4-yl)indol-1-yl]-2-methylcyclopropyl]-4H-1,2,4-oxadiazol-5-one] |
| 5.6 | CCc1nccc(-c2ccc3c(c2)cc(C(=O)N2CCc4nn(-c5cc(C)c(F)c(C)c5)c(-n5ccn(-c6ccc7c(cnn7C)c6)c5=O)c4C2)n3[C@@]2(c3noc(=O)[nH]3)C[C@@H]2C)c1C [Example 2, 3-[(1S,2S)-1-[5-(2-ethyl-3-methylpyridin-4-yl)-2-[2-(4-fluoro-3,5-dimethylphenyl)-3-[3-(1-methylindazol-5-yl)-2-oxoimidazol-1-yl]-6,7-dihydro-4H-pyrazolo[4,3-c]pyridine-5-carbonyl]indol-1-yl]-2-methylcyclopropyl]-4H-1,2,4-oxadiazol-5-one] |
| 6.2 | COc1nccc(-c2cc3cc(C(=O)N4CCc5nn(-c6cc(C)c(F)c(C)c6)c(-n6ccn(-c7ccc8c(cnn8C)c7)c6=O)c5[C@@H]4C)n([C@@]4(c5noc(=O)[nH]5)C[C@@H]4C)c3cc2F)c1C [compound 74, 3-[(1S,2S)-1-[6-Fluoro-2-[(4S)-2-(4-fluoro-3,5-dimethylphenyl)-4-methyl-3-[3-(1-methylindazol-5-yl)-2-oxoimidazol-1-yl]-6,7-dihydro-4H-pyrazolo[4,3-c]pyridine-5-carbonyl]-5-(2-methoxy-3-methylpyridin-4-yl)indol-1-yl]-2-methylcyclopropyl]-4H-1,2,4-oxadiazol-5-one] |
| 1.9 | Cc1cc(-n2nc3c(c2-n2ccn(-c4ccc5c(cnn5CC(F)(F)F)c4F)c2=O)[C@H](C)N(C(=O)c2cc4cc([C@H]5CCOC(C)(C)C5)ccc4n2[C@@]2(c4noc(=O)[nH]4)C[C@@H]2C)CC3)cc(C)c1Cl [Example 42, 3-[(1S,2S)-1-[2-[(4S)-2-(4-chloro-3,5-dimethylphenyl)-3-[3-[4-fluoro-1-(2,2,2-trifluoroethyl)indazol-5-yl]-2-oxoimidazol-1-yl]-4-methyl-6,7-dihydro-4H-pyrazolo[4,3-c]pyridine-5-carbonyl]-5-[(4S)-2,2-dimethyloxan-4-yl]indol-1-yl]-2-methylcyclopropyl]-4H-1,2,4-oxadiazol-5-one] |
| 3 | Cc1cc(-n2nc3c(c2-n2ccn(-c4ccc5[nH]ncc5c4)c2=O)[C@H](C)N(C(=O)c2cc4cc(C5CCOC(C)(C)C5)ccc4n2[C@@]2(c4noc(=O)[nH]4)C[C@@H]2C)CC3)cc(C)c1F (stereo in doubt) [Example 34, 3-[(1S,2S)-1-[5-[(4S)-2,2-dimethyloxan-4-yl]-2-[(4S)-2-(4-fluoro-3,5-dimethylphenyl)-3-[3-(1H-indazol-5-yl)-2-oxoimidazol-1-yl]-4-methyl-6,7-dihydro-4H-pyrazolo[4,3-c]pyridine-5-carbonyl]indol-1-yl]-2-methylcyclopropyl]-4H-1,2,4-oxadiazol-5-one] |

| SMILES | EC50 [nM] |
| --- | --- |
| CCc1nccc(-c2ccc3c(c2)cc(C(=O)N2CCc4nn(-c5cc(C)c(F)c(C)c5)c(-n5ccn(-c6ccc7c(C)nsc7c6)c5=O)c4C2)n3[C@@]2(c3noc(=O)[nH]3)C[C@@H]2C)c1C [Example 3] | 6.1 |
